Measured values published in article PMC6009853, “Inhibition studies on a panel of human carbonic anhydrases with N1-substituted secondary sulfonamides incorporating thiazolinone or imidazolone-indole tails” (Journal of Enzyme Inhibition and Medicinal Chemistry, 2018).
Read-outs that look alike come from different tables or passages of the source.

Key:
hCA II = target: T1, hCA II (Homo sapiens, UniProt P00918); assay: stopped-flow CO2 hydrase assay; type: biochemical
T1 construct: gene CA2; recombinant, obtained in-house
From the text: stopped-flow CO2 hydrase assay on hCA II

hCA IV = target: T2, hCA IV (Homo sapiens, UniProt P22748); assay: stopped-flow CO2 hydrase assay; type: biochemical
T2 construct: gene CA4; recombinant, obtained in-house; membrane-associated isoform

hCA IX [1] = target: T3, hCA IX (Homo sapiens, UniProt Q16790); assay: stopped-flow CO2 hydrase assay; type: biochemical
T3 construct: gene CA9; recombinant, obtained in-house; tumour-associated isoform
From the text: stopped-flow CO2 hydrase assay on hCA IX

hCA I = target: T4, hCA I (Homo sapiens, UniProt P00915); assay: stopped-flow CO2 hydrase assay; type: biochemical
T4 construct: gene CA1; recombinant, obtained in-house; cytosolic
From the text: stopped-flow CO2 hydrase assay on hCA I

hCA IX [2] = target: T3, hCA IX; assay: stopped-flow CO2 hydrase assay; type: biochemical; details: read-out: hCA I
[3] = stopped-flow CO2 hydrase assay; type: biochemical, Homo sapiens; details: read-out: hCA I

T4 sequence (P00915 2-261): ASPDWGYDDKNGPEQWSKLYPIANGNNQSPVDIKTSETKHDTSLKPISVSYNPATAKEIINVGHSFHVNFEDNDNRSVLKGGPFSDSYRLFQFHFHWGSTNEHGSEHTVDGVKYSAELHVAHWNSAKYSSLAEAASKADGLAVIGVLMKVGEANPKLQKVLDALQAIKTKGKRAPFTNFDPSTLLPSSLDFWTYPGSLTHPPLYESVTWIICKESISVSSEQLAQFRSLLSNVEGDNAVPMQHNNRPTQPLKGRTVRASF
T2 sequence (P22748 19-284): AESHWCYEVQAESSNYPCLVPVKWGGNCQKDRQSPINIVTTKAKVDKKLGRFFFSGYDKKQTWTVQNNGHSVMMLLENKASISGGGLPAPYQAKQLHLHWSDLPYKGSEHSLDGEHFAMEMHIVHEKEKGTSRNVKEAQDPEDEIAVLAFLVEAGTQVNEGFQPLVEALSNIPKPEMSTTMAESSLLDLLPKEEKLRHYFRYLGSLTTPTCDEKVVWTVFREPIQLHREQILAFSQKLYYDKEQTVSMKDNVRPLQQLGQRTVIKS

Ki (hCA II) [µM]	Ki (hCA IV; read-out: hCA IV) [µM]	Ki (hCA IX [1]) [µM]	Ki (hCA I) [µM]	Ki (hCA IX [2]) [µM]	Ki [3] [µM]	Ki (hCA IV; read-out: hCA II) [µM]	Structure (SMILES)
0.0764	4.43	0.308	0.0964				NS(=O)(=O)c1ccc(NC2=NC(=O)C(=Cc3c[nH]c4ccccc34)S2)cc1 [7a, 4-{[5-((1H-indol-3-yl)methylene)-4-oxo-4,5-dihydrothiazol-2-yl]amino}benzenesulfonamide]
7.18	> 10	1.4	9.07				N=C(N)NS(=O)(=O)c1ccc(NC2=NC(=O)C(=Cc3c[nH]c4ccccc34)S2)cc1 [7f, 4-{[5-((1H-indol-3-yl)methylene)-4-oxo-4,5-dihydrothiazol-2-yl]amino}-N-carbamimidoyl benzenesulfonamide]
	> 10		> 10	> 10	> 10		O=S(=O)(Nc1ccccn1)c1ccc(N=Cc2c[nH]c3ccccc23)cc1 [4d]
	> 10	1.47					CC(=O)NS(=O)(=O)c1ccc(N2C(=O)C(=Cc3cn(C(C)=O)c4ccccc34)N=C2c2ccccc2)cc1 [10b, N-[(4–(4-((1-acetyl-1H-indol-3-yl)methylene)-5-oxo-2-phenyl-4,5-dihydro-1H-imidazol-1-yl)phenyl)sulfonyl]acetamide]
	> 10		> 10	> 10	> 10		COc1ccc(C2=NC(=Cc3cn(C(C)=O)c4ccccc34)C(=O)N2c2ccc(S(=O)(=O)Nc3ccccn3)cc2)cc1 [10j, 4-[4-((1-Acetyl-1H-indol-3-yl)methylene)-2–(4-methoxyphenyl)-5-oxo-4,5-dihydro-1H-imidazol-1-yl]-N-(pyridin-2-yl)benzenesulfonamide]
0.549	3.05	1.4	5.72				COc1ccc(C2=NC(=Cc3cn(C(C)=O)c4ccccc34)C(=O)N2c2ccc(S(=O)(=O)NC(C)=O)cc2)cc1 [10h, N-[(4–(4-((1-acetyl-1H-indol-3-yl)methylene)-2–(4-methoxyphenyl)-5-oxo-4,5-dihydro-1H-imidazol-1-yl)phenyl)sulfonyl]acetamide]
	> 10		> 10	> 10	> 10		O=S(=O)(Nc1nccs1)c1ccc(N=Cc2c[nH]c3ccccc23)cc1 [4e]
	> 10		> 10	> 10	> 10		O=C1N=C(Nc2ccc(S(=O)(=O)Nc3ccccn3)cc2)SC1=Cc1c[nH]c2ccccc12 [7d]
0.602	2.77	0.328	0.0937				COc1ccc(C2=NC(=Cc3cn(C(C)=O)c4ccccc34)C(=O)N2c2ccc(S(N)(=O)=O)cc2)cc1 [10g, 4-[4-((1-Acetyl-1H-indol-3-yl)methylene)-2–(4-methoxyphenyl)-5-oxo-4,5-dihydro-1H-imidazol-1-yl]benzenesulfonamide]
0.576	2.74	0.327	0.0885				NS(=O)(=O)c1ccc(N=Cc2c[nH]c3ccccc23)cc1 [4a, 4-{[(1H-indol-3-yl)methylene]amino}benzenesulfonamide]
8.29	> 10	1.31	7.53				N=C(N)NS(=O)(=O)c1ccc(N=Cc2c[nH]c3ccccc23)cc1 [4f, 4-{[(1H-indol-3-yl)methylene]amino}-N-carbamimidoylbenzenesulfonamide]
> 10		1.21	6.9			> 10	COc1ccc(C2=NC(=Cc3cn(C(C)=O)c4ccccc34)C(=O)N2c2ccc(S(=O)(=O)NC(=N)N)cc2)cc1 [10l, 4-[4-((1-Acetyl-1H-indol-3-yl)methylene)-2–(4-methoxyphenyl)-5-oxo-4,5-dihydro-1H-imidazol-1-yl]-N-carbamimidoylbenzenesulfonamide]
	> 10		> 10	> 10	> 10		COc1ccc(C2=NC(=Cc3cn(C(C)=O)c4ccccc34)C(=O)N2c2ccc(S(=O)(=O)Nc3ncccn3)cc2)cc1 [10i, 4-[4-((1-Acetyl-1H-indol-3-yl)methylene)-2–(4-methoxyphenyl)-5-oxo-4,5-dihydro-1H-imidazol-1-yl]-N-(pyrimidin-2-yl)benzenesulfonamide]
	> 10		> 10	> 10	> 10		CC(=O)n1cc(C=C2N=C(c3ccccc3)N(c3ccc(S(=O)(=O)Nc4nccs4)cc3)C2=O)c2ccccc21 [10e, 4-[4-((1-Acetyl-1H-indol-3-yl)methylene)-5-oxo-2-phenyl-4,5-dihydro-1H-imidazol-1-yl]-N-(thiazol-2-yl)benzenesulfonamide]
	> 10		> 10	> 10	> 10		COc1ccc(C2=NC(=Cc3cn(C(C)=O)c4ccccc34)C(=O)N2c2ccc(S(=O)(=O)Nc3nccs3)cc2)cc1 [10k, 4-[4-((1-Acetyl-1H-indol-3-yl)methylene)-2–(4-methoxyphenyl)-5-oxo-4,5-dihydro-1H-imidazol-1-yl]-N-(thiazol-2-yl)benzenesulfonamide]
	> 10		> 10	> 10	> 10		O=C1N=C(Nc2ccc(S(=O)(=O)Nc3ncccn3)cc2)SC1=Cc1c[nH]c2ccccc12 [7c]
3.82	> 10	1.64	5.76				CC(=O)n1cc(C=C2N=C(c3ccccc3)N(c3ccc(S(=O)(=O)N=C(N)N)cc3)C2=O)c2ccccc21 [10f, 4-[4-((1-Acetyl-1H-indol-3-yl)methylene)-5-oxo-2-phenyl-4,5-dihydro-1H-imidazol-1-yl]-N-carbamimidoylbenzenesulfonamide]
> 10		0.778	7.98			> 10	CC(=O)NS(=O)(=O)c1ccc(NC2=NC(=O)C(=Cc3c[nH]c4ccccc34)S2)cc1 [7b, N-{[4-((5-((1H-indol-3-yl)methylene)-4-oxo-4,5-dihydrothiazol-2-yl)amino)phenyl]sulfonyl} acetamide]
	> 10		> 10	> 10	> 10		CC(=O)n1cc(C=C2N=C(c3ccccc3)N(c3ccc(S(=O)(=O)Nc4ccccn4)cc3)C2=O)c2ccccc21 [10d]
	> 10		> 10	> 10	> 10		CC(=O)n1cc(C=C2N=C(c3ccccc3)N(c3ccc(S(=O)(=O)Nc4ncccn4)cc3)C2=O)c2ccccc21 [10c, 4-[4-((1-Acetyl-1H-indol-3-yl)methylene)-5-oxo-2-phenyl-4,5-dihydro-1H-imidazol-1-yl]-N-(pyrimidin-2-yl)benzenesulfonamide]
	> 10		> 10	> 10	> 10		O=C1N=C(Nc2ccc(S(=O)(=O)Nc3nccs3)cc2)SC1=Cc1c[nH]c2ccccc12 [7e, 4-{[(5-((1H-indol-3-yl)methylene)-4-oxo-4,5-dihydrothiazol-2-yl)amino]-N-(thiazol-2-yl)] benzenesulfonamide]
	> 10		> 10	> 10	> 10		O=S(=O)(Nc1ncccn1)c1ccc(N=Cc2c[nH]c3ccccc23)cc1 [4c]
> 10		1.62	8.58			> 10	CC(=O)NS(=O)(=O)c1ccc(N=Cc2c[nH]c3ccccc23)cc1 [4b, N-{[4-(((1H-indol-3-yl)methylene)amino)phenyl]sulfonyl}acetamide]
	0.263	0.318					CC(=O)n1cc(C=C2N=C(c3ccccc3)N(c3ccc(S(N)(=O)=O)cc3)C2=O)c2ccccc21 [10a, 4-[4-((1-Acetyl-1H-indol-3-yl)methylene)-5-oxo-2-phenyl-4,5-dihydro-1H-imidazol-1-yl]benzenesulfonamide]
